From patent US20100119587A1, “SOLID LIPIDIC […] AS PHARMACEUTICALLY ACCEPTABLE FILLERS OR […] FOR INHALATION” (UNIVERSITE LIBRE DE BRUXELLES, priority 2004, published 2010) come the findings set out here.

Values after ≈ are worked out from the molar mass of the structure shown.

The term solubility denotes the dissolved amount per volume that the medium holds.

Assay type in all cases: physicochemical
The nature of data set [1]: Particle size distribution by laser diffraction (Mastersizer 2000, dry sampling). As for the experimental part: For each SLP composition, the particle size distribution is measured by laser diffractometry, using a dry sampling system with a suitable SOP (Standard Operating Procedure), (Scirocco®, Mastersizer 2000, Malvern, UK).
The size distributions are expressed in terms of the mass median diameter d(0.5), i.e. the size in microns which 50% of the sample is smaller and 50% is larger, and in terms of the volume (mass) mean diameter D[4,3].

The nature of data set [2]: In vitro deposition test, FPD/FPF by Multi-stage Liquid Impinger (tobramycin formulations). The note with it: Table 11, loaded dose = 15 mg, Cyclohaler 100 l/min 2.4 s, n = 3. As for the experimental part:
The Fine Particle Dose has been determined by the method described in the European Pharmacopoeia 4 for the aerodynamic assessment of fine particle, using Apparatus C—Multi-stage Liquid Impinger (MsLI) […] The flow rate was adjusted to a pressure drop of 4 kPa, as typical for inspiration by a patient, resulting in a flow rate of 100 l/min during 2.4 seconds. At least 3 FPD determinations were performed on each formulation and analysis were carried out by a suitable and validated analytical HPLC method. In order to increase the UV absorptivity of the molecule, a derivatization method was applied. The suitable and validated quantification method is described in the USP 25. The HPLC system consisted of a High Performance Liquid Chromatography system (HP 1100 series, Agilent technologies, Belgium), equipped with a quartenary pump, an autosampler and a variable wavelength UV detector set at 360 nm. The separation system was a 39 cm×3.9 mm stainless steel (5 μm particle size) reversed-phase C18 column (Alltima, Alltech, Belgium). Samples of 20 μl volume were injected. The mobile phase was prepared by dissolving 2 g of Tris(hydroxymethyl)aminomethane in 800 ml of water. […] The mass of test substance deposited on each stage was determined from the HPLC analysis of the recovered solutions. […] It is considered to be directly proportional to the amount of drug able to reach the pulmonary tract in vivo, and consequently, the higher the value FPD, the higher the estimated lung deposition.

The nature of data set [3]: Solubility in isopropanol. The note with it: organic solvent or mixture.

`NC[C@H]1O[C@H](O[C@H]2[C@H](O)[C@@H](O[C@H]3O[C@H](CO)[C@@H](O)[C@H](N)[C@H]3O)[C@H](N)C[C@@H]2N)[C@H](N)C[C@@H]1O` [Tobra μ, tobramycin]: the “d (0.5)” value in data set [1] (Table 10, Example 13, dry powder form, mean ± S.D., n = 3) is 1.29 ± 0.02 μm. For the same compound, the “D [4, 3]” value in data set [1] (Table 10, Example 13, dry powder form, n = 3) worked out at 1.54 ± 0.01 μm. In addition, in data set [1] (Table 10, Example 13, n = 3), the “% <5.0 μm” value worked out at 99.3 ± 0.2%. Further, in data set [2], the FPD was found to be 7.2 ± 0.6 mg and the FPF came out at 48.1 ± 0.4%. Besides, in data set [2] (listed as uncoated micronized tobramycin), the FPF result is listed as “around 48%”. Besides, in data set [3], the solubility is 50 µg/mL (≈ 107 µM).
